Data taken from patent publication US20240366577A1, “CONTROLLED LONG-TERM DRUG DELIVERY AND METHODS THEREOF” (THE JOHNS HOPKINS UNIVERSITY, priority 2021, published 2024).

What was measured:
[1] = crystals collected from vitreous fluid after intravitreal injection; assay type: in vivo, mouse; conditions: collected 2 weeks after injection; compared to larger crystalline sorafenib
[2] = body weight of treated tumor-bearing mice; assay type: in vivo, BALB/c mice; conditions: crystals in ~100-200 μl saline, IP or SC, any site or dose tested
Description: However, due to the highly hydrophobic nature of sorafenib, its daily 25 mg/kg bolus dosing regimen required regular used of a solvent solution made up of ˜60% of the strong organic solvent dimethylsulfoxide (DMSO). […] In stark contrast, no DMSO was required for delivery of sorafenib crystals, for which instead simply utilized ˜100-200 μl of saline to inject into the desired IP or SC tissue sites.
Once tumors had reached an average volume of ˜220-250 mm^3, mice were administered either subcutaneously or intraperitoneally with 3 or 10 mg of crystalline sorafenib, diameter ˜150-200 μm, suspended in 200 μL of sterile saline using an 18 g needle. As a control, mice (n=4) were dosed with sorafenib dissolved at a concentration of 4 mg/mL in a solution of 65% DMSO (remainder DPBS). Mice were dosed either subcutaneously or intraperitoneally with a bolus of 25 mg drug per kg of bodyweight (BW), daily. As a secondary control, mice were dosed with the 65% DMSO/PBS vehicle to monitor changes in body score based on the vehicle alone.

[3] = system: alpha Smooth Muscle actin (aSMact); test: immunofluorescent staining of tumors: aSMact; assay type: in vivo, BALB/c mice; conditions: single SC injection of 3 mg or 10 mg crystals, compared to daily bolus
Description: To confirm the effects seen at the level of RNA, immunofluorescent staining of excised tumor samples that were in parallel fixed with paraformaldehyde and embedded in paraffin was performed. […] Co-localization of CD31 with aSMact was, as expected, not linked in crystal sorafenib-treated tumors, where CD31 reduction was more extensive than with daily, bolus sorafenib.
Immunofluorescence imaging was used to determine anti-angiogenic drug efficacy. Tumor tissues were retrieved from mice and fixed overnight using 4% paraformaldehyde at 4° C. After fixation, retrieved tissue samples were moved to 70% ethanol. Samples were then processed for paraffin embedding, sectioning and staining. […] Next, tissues were incubated for 1 hour in an immunostaining cocktail solution consisting of NucBlue (Thermo), specific marker probes (1:200 dilution) anti-CD31 (Cat#DIA-310, HistoBioTec) and anti-alphaSmoothMuscle actin-Cy3 (Sigma) in Dako staining buffer. For CD31, a goat anti-rat alexa-fluor647 secondary antibody was also used (1:400). After staining, samples were rinsed again with 1X PBS three times prior to slides being cover slipped with Pro-long anti-fade Gold (Thermo). […] For stain quantification, images were converted into 8-bit image files, a background threshold was determined using NIH ImageJ, and then all images were processed using an NIH ImageJ macro to quantify the area of positive stain. […]

4T1 tumors = test: orthotopic parent 4T1 TNBC tumor growth; assay type: in vivo, BALB/c mice
Description: Namely, 4T1 tumors were treated with either PBS (PBS CONTROL), intraperitoneal (IP) bolus sorafenib (25 mg/kg BW/day) (IP BOLUS), 3 mg IP injected sorafenib crystals (IP CRYSTAL 3 MG), or sorafenib crystals (3 mg: SC CRYSTAL (3 MG); 10 mg: SC CRYSTAL (10 MG)) injected around developed tumors in the subcutaneous (SC) mammary fatpad. Furthermore, to truly test the utility of crystalline sorafenib in treating such an aggressive TNBC model, treatment was carried out retrospectively and only started once tumor volumes reached ˜225-250 mm^3. A positive control liquid-dissolved and daily injected drug treatment group was included, where mice were dosed with a daily bolus of 25 mg sorafenib/kg of mouse BW. […] This may be supported by our prior observation that in the IP compartment, where there is higher 10 liquid turnover as compared to the SC space, crystalline drugs usually have a faster kinetic of release over time.
4T1 or 4T1-luc2 cells were trypsinized using 0.25% Trypsin-EDTA, then diluted with the appropriate complete culture media and spun in a centrifuge at 300 g for 5 min. The supernatant was aspirated, and the pellet was re-suspended in serum-free RPMI 1640. The solution was centrifuged again, and the supernatant aspirated. Re-suspension, centrifugation, and aspiration was repeated once more. 5 mL of RPMI-1640 was then added to the pellet. 10 μL of the cell suspension was removed and mixed with 10 μL of Trypan blue stain 0.4% (ThermoFisher). Cells were counted with a Countess automated cell counter. Cell solutions were centrifuged one more time, the supernatant aspirated, and the pellet resuspended in the amount of RPMI-1640 required to achieve a concentration of 5×10^5 cells/200 μL of media. Tumor cells were then administered orthotopically in naive (and anesthetized) BALB/c mice into the right inguinal mammary fat pad 21 with 200 μL aliquots of the cell suspension, using an insulin syringe. Tumors were measured externally using a digital caliper, and volume was calculated (!″* (length * height) *−length * height). Except in the 4T1-luc2 trial, treatment began once tumors reached an average volume of 220-250 mm3. Experimental end point was deemed when solid tumors reached a volume of no more than 2000 mm3. Tumors were extracted and harvested, half stored in 4% paraformaldehyde diluted from 32% (Cat#50980495, Electron Microscopy Services) with DI H2O, and half frozen in liquid nitrogen, then stored at −80° C.
Once tumors had reached an average volume of ˜220-250 mm^3, mice were administered either subcutaneously or intraperitoneally with 3 or 10 mg of crystalline sorafenib, diameter ˜150-200 μm, suspended in 200 μL of sterile saline using an 18 g needle. […]

[4] = system: macrophage Cd68 and myeloid Cd11b; test: qPCR of retrieved tumors: immune markers; assay type: in vivo, BALB/c mice; conditions: crystal treatment groups

## CNC(=O)c1cc(Oc2ccc(NC(=O)Nc3ccc(Cl)c(C(F)(F)F)c3)cc2)ccn1 [crystalline sorafenib, sorafenib]
[1]
  polymorph and crystal form of crystals recovered from vitreous fluid: identical in polymorph and crystal form
[2]
  effect on bodyweight: did not negatively affect bodyweight
[3]
  tumor aSMact levels (immunofluorescence): reduction is less significant
4T1 tumors; single IP injection, 3 mg crystals
  tumor response (tumor volume): less response than 10 mg SC but more than a comparable 3 mg dose injected SC
4T1 tumors; single local SC injection, 10 mg crystals, start at ~225-250 mm^3
  tumor response (tumor volume): tumor stasis
4T1 tumors; single local SC injection, 2-3 mg crystals, start at ~225-250 mm^3
  tumor response (tumor volume): tumor delays only
[4]
  Cd68 and Cd11b expression levels (qPCR): no significant changes
